Experimental findings from BindingDB's records for patent US8633204 (Pfizer, 2014) are described below.

As usually defined, the IC50 is the concentration that inhibits the measured activity by half. Lower therefore signals greater potency.

The target in the test is Phosphatidylinositol 4,5-bisphosphate 3-kinase catalytic subunit alpha isoform (Mus musculus, UniProt P42337). The experiment in a line: Biochemical Assay. Conditions: pH 7.4; 25 °C. The procedure: Compounds of the present invention were evaluated for potency against PI3-Kα using an in vitro kinase assay. PI3-Kα activity is measured in vitro by determining the level of phosphorylation of the substrate PI(4,5)P2. The formation of product PI(3,4,5)P3 is monitored by binding to the Grip1 PH domain in a ligand displacement fluorescence polarization (FP) assay, in which the TAMRA-labeled PI(3,4,5)P3 complexed with Grip1 PH domain is displaced by PI(3,4,5)P3 formed in the PI3-Kα reaction resulting in a decrease in FP signal.
Sequence of Phosphatidylinositol 4,5-bisphosphate 3-kinase catalytic subunit alpha isoform (P42337 whole entry, the tested form may be a part, canonical isoform): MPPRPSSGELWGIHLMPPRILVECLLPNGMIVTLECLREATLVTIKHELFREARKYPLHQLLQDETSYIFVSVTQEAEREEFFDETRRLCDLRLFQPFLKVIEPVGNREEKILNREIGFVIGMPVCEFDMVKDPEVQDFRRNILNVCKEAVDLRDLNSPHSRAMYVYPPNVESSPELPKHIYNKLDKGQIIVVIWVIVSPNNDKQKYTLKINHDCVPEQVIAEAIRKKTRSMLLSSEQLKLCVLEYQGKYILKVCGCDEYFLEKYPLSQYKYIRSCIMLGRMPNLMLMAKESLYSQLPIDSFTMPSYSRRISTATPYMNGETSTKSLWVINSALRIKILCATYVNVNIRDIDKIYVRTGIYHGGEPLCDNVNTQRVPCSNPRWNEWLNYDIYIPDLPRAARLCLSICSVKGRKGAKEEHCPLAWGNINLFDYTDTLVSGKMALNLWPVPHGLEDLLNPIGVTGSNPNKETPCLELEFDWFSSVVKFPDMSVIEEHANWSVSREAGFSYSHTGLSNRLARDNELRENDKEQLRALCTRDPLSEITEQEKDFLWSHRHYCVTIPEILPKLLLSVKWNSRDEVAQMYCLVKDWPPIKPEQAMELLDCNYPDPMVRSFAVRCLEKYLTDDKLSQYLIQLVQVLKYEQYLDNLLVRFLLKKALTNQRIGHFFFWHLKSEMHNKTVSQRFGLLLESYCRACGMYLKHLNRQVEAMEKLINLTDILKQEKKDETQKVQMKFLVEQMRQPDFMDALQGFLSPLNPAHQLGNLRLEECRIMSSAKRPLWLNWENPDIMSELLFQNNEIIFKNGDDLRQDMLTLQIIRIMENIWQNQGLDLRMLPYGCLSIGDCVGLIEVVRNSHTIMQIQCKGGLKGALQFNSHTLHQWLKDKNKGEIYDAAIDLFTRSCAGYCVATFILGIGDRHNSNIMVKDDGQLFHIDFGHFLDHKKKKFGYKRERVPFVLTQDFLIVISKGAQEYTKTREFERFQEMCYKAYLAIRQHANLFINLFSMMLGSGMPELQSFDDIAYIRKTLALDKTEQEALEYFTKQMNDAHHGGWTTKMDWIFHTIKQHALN
`CCNc1nc(C)c2cc(-c3cccc(O)c3)c(=O)n(C3CCCC3)c2n1` [US8633204, 144] displayed a 50% inhibitory concentration (IC50) of 1.01 nM.
As for `Cc1nc(N)nc2c1cc(-c1cn[nH]c1)c(=O)n2C1CCC(=O)CC1` [US8633204, 176], the figure is 12 nM; as for `Cc1nc(N)nc2c1cc(-c1cccnc1N)c(=O)n2C1CCCC1` [US8633204, 125], 1430 nM; as for `CCNc1nc(C)c2cc(-c3ccc(O)c(OC)c3)c(=O)n(C3CCCC3)c2n1` [US8633204, 136], 3.08 nM.
For `Cc1nc(N)nc2c1cc(Br)c(=O)n2CC(C)(C)O` [US8633204, 167], the IC50 came out at 680 nM.
As for `Cc1nc(N)nc2c1cc(Br)c(=O)n2[C@H]1CC[C@H](O)CC1` [US8633204, 157], the figure is 44 nM; as for `Cc1nc(N)nc2c1cc(-c1cnn(C)c1)c(=O)n2C1CCCC1` [US8633204, 235], 32 nM.
